The text below walks through data of paper PMC9639481, “Discovery of dual tubulin-NEDDylation inhibitors with antiproliferative activity” (Journal of Enzyme Inhibition and Medicinal Chemistry, 2022).

For orientation: IC50 means the concentration at which inhibition is half-maximal.

Assay [1] concerns T1, tubulin.
T1 construct: with alpha/beta-tubulin heterodimer
The assay can be described thus: in vitro tubulin polymerisation assay. It is filed as biochemical.

Assay [2] concerns T1, tubulin. The assay can be described thus: in vitro tubulin polymerisation assay; supported by immunofluorescence of microtubules in HepG2 cells. Type of assay: biochemical.

Take `COc1ccc(CN(C(=O)CSC(=S)N2CC(C)CC(C)C2)c2cc(OC)c(OC)c(OC)c2)cc1` (centres unmarked) [C14, 2-((4-Methoxybenzyl)(3,4,5-trimethoxyphenyl)amino)-2-oxoethyl-3,5-dimethylpiperidine-1-carbodithioate]: the IC50 with tubulin [1] was over 4 µM.

Take `COc1ccc(CN(C(=O)CSC(=S)N2CCCCC2)c2cc(OC)c(OC)c(OC)c2)cc1` [C11, 2-((4-Methoxybenzyl)(3,4,5-trimethoxyphenyl)amino)-2-oxoethylpiperidine-1-carbodithioate]: in the assay with tubulin [2], the half-inhibitory concentration (IC50) turned out to be 2.4 µM.
